We go through five compounds from paper PMC5494507, “γ‐Secretase inhibitors in cancer clinical trials are pharmacologically and functionally distinct” (EMBO Molecular Medicine, 2017).

One test deals with cNOTCH1sub. The test can be described thus: Cell-based γ-secretase cleavage assay, cNOTCH1sub in H4 cells (Aβ-like peptide ELISA). The arrangement: species or system human. The conditions noted are these: Aβ-like peptide in media, GSI overnight. As for the experimental part:
(§1) Using these cell‐based γ‐secretase cleavage assays, we systematically investigated the substrate inhibition profile of BMS‐906024, MK‐0752, PF‐308414, RO4929097, Semagacestat, and DAPT. We treated H4 cells stably expressing cNOTCH1‐4sub with 4 pM to 10 μM of GSIs (Fig 5A and Table 2) and measured the Aβ‐like peptide secreted into the media.
(§2) For the cell‐based assay, all substrates contain a human NOTCH4 signal peptide sequence ([…]), amyloid β peptide (Aβ1–25/K16A) epitope tag followed by the juxtamembrane region (JMD) of the given substrate and a FLAG tag ([…]) at the COOH‐terminal. K16A mutant was created to decrease potential α‐secretase cleavage. The cDNAs were generated by gene synthesis conducted by Genscript. A schematic representation of the substrates is provided in Fig 4A, and sequences of the cDNAs and the proteins are provided in Appendix Fig S6. For clarity, these substrates are referred to as cell‐based assay substrates (e.g., NOTCH1 is cNOTCH1sub). Substrate cDNAs were cloned into pCDNA3.1 (Invitrogen, Carlsbad, CA, USA) for expression in H4 cells (ATCC, Manassas, VA).
(§3) H4 cells were cultured in Opti‐mem media (Thermo‐Fisher) supplemented with Hyclone 6% fetal bovine serum (GE, Logan, Utah, USA) and 1% penicillin/streptomycin (Life Technologies, Grand Island, NY, USA). pCDNA3.1 plasmids containing the substrate cDNAs were transfected into H4 cells using FuGENE HD reagent (Madison, WI, USA). Stable cell lines were established using G418 selection. […] Cells and conditioned media were used for WB, IP, and ELISA.
(§4) Sandwich ELISAs used for Aβ detection were performed as previously described (Murphy et al, 1999; Ran et al, 2014). Briefly, Aβ and Aβ‐like peptides in conditioned media were captured with Ab5 antibody and detected with horseradish peroxidase labeled mAb 4G8 (Biolegend). Synthetic Aβ1‐40 was used as standard. All ELISAs were developed with TMB substrate (KPL, Gaithersburg, Maryland, USA). Bis‐Tris precast gels (Biorad, Hercules, CA, USA) were used for all SDS–PAGE. Monoclonal anti‐FLAG M2 antibody (Sigma) and Aβ1‐16 antibody 6E10 (Covance) were used for Western blotting at 1:1,000 dilution. Anti‐CD74 In‐1 antibody (BD Bioscience, San Jose, CA, USA) was used for A20 cell lysate Western blotting at dilution of 1:1,000. MDA‐MB‐231 cell extracts were prepared by lysing cells in RIPA buffer containing protease and phosphatase inhibitors. The lysates were kept on ice for 30 min and vortexed every 10 min, and then centrifuged at 4°C for 10 min at 1,000 g. The supernatants were collected, and protein concentrations were determined by Bradford Assay. Pan‐NOTCH1 antibody (C‐20) (Santa Cruz Biotechnology) and cleaved NOTCH1 (Val1744) antibody ([…]) were used at 1:500 and 1:100 dilution in the test of endogenous NOTCH1 inhibition with β‐actin expression used as loading control. β‐actin antibody was used at 1:1,000 dilution (Sigma). Band intensities normalized for actin using densitometry analysis with ImageJ Software (NIH, USA).
On the technique in general: In an ELISA, binding on a coated surface is turned into a signal by an enzyme label.

The target in a further test is cNOTCH2sub (Homo sapiens, UniProt P49768). As to the kind of experiment: Cell-based γ-secretase cleavage assay, cNOTCH2sub in H4 cells (Aβ-like peptide ELISA). The following applies: rank among the six GSIs, number in brackets. As for the experimental part: as §1, §2, §3, §4
Another test relates to cNOTCH3sub. The test can be described thus: Cell-based γ-secretase cleavage assay, cNOTCH3sub in H4 cells (Aβ-like peptide ELISA). Further details: species or system human. As for the experimental part: as §1, §2, §3, §4
Another test relates to cNOTCH1‐4sub. The test can be described thus: Average of cell-based IC50s on cNOTCH1-4sub in H4 cells. Further details: species or system human. The conditions noted are these: read-out: Average IC50s of each GSI on cNOTCH1‐4sub. As for the experimental part: as §1, §2, §3, §4
Another test concerns the target T1, SPPL2b (Homo sapiens, UniProt Q8TCT7).
T1 construct: expressed in transfected cells
T1 sequence (Q8TCT7 26-592): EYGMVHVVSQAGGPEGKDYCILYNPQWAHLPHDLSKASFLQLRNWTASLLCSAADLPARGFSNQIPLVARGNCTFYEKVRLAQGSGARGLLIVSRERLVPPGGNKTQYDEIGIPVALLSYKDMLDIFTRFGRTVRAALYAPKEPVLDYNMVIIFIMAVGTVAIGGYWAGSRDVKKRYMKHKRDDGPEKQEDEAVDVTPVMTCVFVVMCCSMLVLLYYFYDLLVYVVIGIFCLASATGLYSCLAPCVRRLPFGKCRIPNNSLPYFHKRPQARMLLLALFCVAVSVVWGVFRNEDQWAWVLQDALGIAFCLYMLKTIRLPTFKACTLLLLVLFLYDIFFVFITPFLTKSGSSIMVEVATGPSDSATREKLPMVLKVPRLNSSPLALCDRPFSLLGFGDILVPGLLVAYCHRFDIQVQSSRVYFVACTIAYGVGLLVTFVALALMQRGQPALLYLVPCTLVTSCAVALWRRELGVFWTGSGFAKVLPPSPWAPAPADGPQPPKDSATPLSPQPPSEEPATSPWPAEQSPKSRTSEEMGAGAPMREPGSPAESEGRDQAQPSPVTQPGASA
As to the kind of experiment: Cell-based SPPL2b cleavage assay, stable SPPL2b/FBA overexpressing HEK 293 cell line (ELISA). The following applies: 16 h. As for the experimental part:
It is known that SPP/SPPLs can be inhibited by select GSIs (Ran et al, 2015). Here, we tested the effect of various GSIs on the SPP/SPPL family members SPPL2a, SPPL2b, and SPP. We co‐transfected SPPLs with the BRI2 based chimeric SPP/SPPL substrate that we have referred to as FBA into HEK 293t cells. SPPL‐specific inhibitor (ZLL)2‐ketone was used as positive control. DAPT was not tested here as we and others have previously reported it had no effect on SPP activity at concentration up to 100 μM (Weihofen et al, 2003). […] Dose responses of BMS‐906024, RO4929097, and PF‐3084014 were performed with a similar strategy, but a stable SPPL2b/FBA overexpressing HEK 293 cell line was used instead of transient transfection (Fig 8B). […] Table 3 compares the GSIs’ potencies on γ‐secretase and SPPL2b. The average of IC50s on cNOTCH1sub, cNOTCH2sub, cNOTCH4sub, and APP was used as the GSI's potency on γ‐secretase.
SPPL2a, SPPL2b, SPP, and chimeric substrate FBA were generated as previously described (Ran et al, 2015). A20 cells (TIB‐208; ATCC, Manassas, VA, USA) were cultured in RPMI‐1640 medium (ATCC) supplied with 10% fetal bovine serum, 1% penicillin/streptomycin, and 0.05 mM 2‐mercaptoethanol (Life Technologies). Various concentrations of GSIs and (ZLL)2‐ketone as indicated in figures were applied to transfected HEK 293t cells at 70–90% confluence or A20 cells at a density of 5 × 10^5 cells/ml with fresh media in 48‐well format for 16 h. Cells and conditioned media were used for WB, IP, and ELISA.
Sandwich ELISAs used for Aβ detection were performed as previously described (Murphy et al, 1999; Ran et al, 2014). Briefly, Aβ and Aβ‐like peptides in conditioned media were captured with Ab5 antibody and detected with horseradish peroxidase labeled mAb 4G8 (Biolegend). Synthetic Aβ1‐40 was used as standard. All ELISAs were developed with TMB substrate (KPL, Gaithersburg, Maryland, USA). Bis‐Tris precast gels (Biorad, Hercules, CA, USA) were used for all SDS–PAGE. […] The supernatants were collected, and protein concentrations were determined by Bradford Assay. […]

The mark [1] stands for this setting: Aβ-like peptide in media, GSI overnight, read-out: IC50 cNOTCH3sub.
[2] abbreviates: value in parentheses, read-out: IC50 cNOTCH3sub, from curves excluding the Aβ level > 120%.

Like-named read-outs stand apart in the source and are kept apart here.

Turning to `CC(C)[C@H](O)C(=O)N[C@@H](C)C(=O)N[C@@H]1C(=O)N(C)CCc2ccccc21` [Semagacestat], the IC50 in the test on cNOTCH1sub was 7.02 nM; with cNOTCH3sub (setting [1]) it was 391 nM; in the test on cNOTCH3sub (setting [2]), 129 nM; with cNOTCH1‐4sub, 121 nM. Further, at cNOTCH2sub, the “rank order of inhibition of cNOTCH2sub” value is “[4]”. Further, in the test with cNOTCH3sub, the “effect on cNOTCH3sub cleavage at low concentrations” value (“effect on cNOTCH3sub cleavage” for short) is reported as “potentiate”.

`O=C(O)CC[C@H]1CC[C@@](c2cc(F)ccc2F)(S(=O)(=O)c2ccc(Cl)cc2)CC1` [MK‐0752]: the IC50 in the test on cNOTCH1sub is 87.4 nM; with cNOTCH3sub (setting [1]), 370 nM; in the test with cNOTCH3sub (setting [2]) it was 194 nM. At cNOTCH2sub, the “rank order of inhibition of cNOTCH2sub” value was “[5]”. The “effect on cNOTCH3sub cleavage” value with cNOTCH3sub is reported as “increases cNOTCH3sub cleavage at low doses”.

For the compound `CC(C)(C(=O)NCC(F)(F)C(F)(F)F)C(=O)N[C@@H]1C(=O)Nc2ccccc2-c2ccccc21` [RO4929097], the IC50 with cNOTCH1sub turned out to be 0.46 nM; with cNOTCH3sub (setting [1]), 19.8 nM; with cNOTCH3sub (setting [2]) it was 6.93 nM; with cNOTCH1‐4sub, 6.48 nM; at SPPL2b, 72.8 nM. At cNOTCH2sub, the “rank order of inhibition of cNOTCH2sub” value is “[3]”. The “concentration that significantly increases cleavage of the cNOTCH3sub” value in the test on cNOTCH3sub (potentiation at low inhibitor concentration) fell in the range of 0.5 to 2.5 nM.

Take `CCC[C@H](N[C@H]1CCc2cc(F)cc(F)c2C1)C(=O)Nc1cn(C(C)(C)CNCC(C)(C)C)cn1` [PF‐3084014]: the IC50 in the test on cNOTCH1sub amounted to 0.6 nM; with cNOTCH3sub (setting [1]) it was 1.21 nM; with cNOTCH1‐4sub, 0.66 nM; at SPPL2b, 1160 nM. For the same compound, at cNOTCH2sub, the “rank order of inhibition of cNOTCH2sub” value is “[1]”. For the same compound, the “effect on cNOTCH3sub cleavage” value with cNOTCH3sub is on record as “potentiates cleavage of NOTCH3”.

In the case of `CN1C(=O)[C@@H](NC(=O)[C@H](CCC(F)(F)F)[C@H](CCC(F)(F)F)C(N)=O)N=C(c2ccccc2)c2ccccc21` [BMS‐906024], the IC50 with cNOTCH1sub was determined as 0.29 nM; with cNOTCH3sub (setting [1]) it was 1.14 nM; in the test with cNOTCH1‐4sub, 0.57 nM; against SPPL2b, 28.3 nM. For the same compound, on cNOTCH2sub, the “rank order of inhibition of cNOTCH2sub” value was “[2]”.
